Among the data in PubChem BioAssay AID623861 (Sanford-Burnham Center for Chemical Genomics, 2012) are EC50 values, retold here.

The EC50 is the concentration at which the effect is half-maximal.

The structures appear in SMILES notation. Activity calls are given as the source filed them.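 The calls were made as follows: active = compounds whose EC50 for boosting single-cell stem cell survival is at or below a set limit; inactive = the rest.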

The test system of this assay is human iPSC single-cell survival, ATP luminescence. The experiment in a line: enhancers of single-cell hiPSC survival, dose response, luminescence (AID 623861).

In the case of `O=C(Nc1ccc(N2CCOCC2)cc1)c1cccc(S(=O)(=O)N2CCCC2)c1`, the EC50 was > 80 µM (inactive). In the case of `Cc1c(Nc2cc(Cl)c3nonc3c2[N+](=O)[O-])c(=O)n(-c2ccccc2)n1C`, the EC50 is > 80 µM (inactive).

With `O=C(Nc1ccncc1)c1cc(S(=O)(=O)N2CCOCC2)ccc1Cl`, the EC50 was 20.4 µM (inactive). The same measure for `Cc1c(C(=O)OCC(=O)Nc2ccc(C(N)=O)cc2)cccc1[N+](=O)[O-]`: 60.8 µM (inactive); for `C[C@@H]1CN([C@@H](C)CO)C(=O)c2cc(Br)cnc2O[C@H]1CN(C)C(=O)C1CC1`: > 80 µM (inactive). Regarding `Cc1cc(Cl)n2nc(C)c(-c3ccc(Cl)cc3)c2n1`, the EC50 is > 80 µM (inactive). Next, `Cc1ccc([C@@H]2C[C@H]3[C@@H](CN2S(=O)(=O)c2ccc(Cl)cc2)C(=O)C[C@@H](c2ccc(C)cc2)N3S(=O)(=O)c2ccc(Cl)cc2)cc1`: > 80 µM (inactive); `CNc1cc(Cl)c2nonc2c1[N+](=O)[O-]`: 12.9 µM.

`CN1C2CCC1/C(=C/c1ccccn1)C(=O)/C2=C\c1ccccn1`: the EC50 was 6.32 µM. As for `CN(C)CCN(C(=O)c1ccc2ccccc2c1)c1nc2cc3c(cc2s1)OCO3`, the EC50 was > 80 µM (inactive). The same measure for `CCOC(=O)C(=O)/C(=C\N(C)C)c1onc(-c2c(F)cccc2Cl)c1C(=O)OC`: > 80 µM (inactive). As to `CC(OC(=O)c1cccc(S(=O)(=O)N2CCN(C)CC2)c1)C(=O)Nc1ccc(C(N)=O)cc1` (configuration not stated), the EC50 was 30.6 µM (inactive). Turning to `CN(Cc1ccccc1)C(=O)CN1CCN(S(=O)(=O)c2ccccc2F)CC1`, the EC50 was > 80 µM (inactive). The same measure for `C=C1C(=O)OC2C1CCC(C)=C1C(=O)C3OC3(C)C12` (configuration not stated): > 80 µM (inactive); for `Cc1ccc(NS(=O)(=O)c2ccc3c(c2)CC(=O)N3)c(C)c1`: > 80 µM (inactive); for `CC1(C)Cc2c(C#N)c(SCC(=O)c3ccccc3)nc(N3CCOCC3)c2CS1`: 13.4 µM.

For `CN1C/C(=C/c2cccnc2)C(=O)/C(=C/c2cccnc2)C1`, the concentration giving a half-maximal response (EC50) was 13.7 µM. In the case of `C=C1[C@@H](C)[C@H]2[C@H](Cc3ccccc3)NC(=O)[C@]23OC(=O)/C=C/[C@H](O)CCC[C@@H](C)C/C=C/[C@H]3[C@@H]1O`, the EC50 was 21.7 µM (inactive).

For the compound `CCSc1cnn(-c2ccccc2)c(=O)c1Cl`, the EC50 is > 80 µM (inactive). Next, `CC(C)CCNC(=O)c1onc(CSc2ccc(F)cc2)c1C(=O)NCCC(C)C`: > 80 µM (inactive); `Cc1nnc2n(C3CCCCC3)c(=O)c3c4c(sc3n12)COC(C)(C)C4`: 38.5 µM (inactive); `CN1Cc2cnnn2-c2ccccc2C1C#N` (configuration not stated): 25.7 µM (inactive). Next, `CCOCCCNC(=O)/C(C#N)=C/c1ccc([N+](=O)[O-])o1`: 53.1 µM (inactive); `COC(=O)c1ccc(C(=O)OC)c(NC(=O)CSc2cccc[n+]2[O-])c1`: > 80 µM (inactive). Next, `C=C1C(=O)O[C@@H]2C[C@@H](C)[C@@H]3C=CC(=O)[C@@]3(C)[C@@H](O)[C@H]12`: 7.88 µM. Consider `O=C(Nc1ccncc1)c1cc(S(=O)(=O)N2CCCC2)ccc1Cl`, for which the EC50 was 20.5 µM (inactive). Take `CC(C)CC1Nc2ncnc(N3CCN(c4ccccc4)CC3)c2N(Cc2ccccc2)C1=O` (configuration not stated): the EC50 is > 80 µM (inactive). Regarding `COC(=O)CCSc1cc([N+](=O)[O-])cc2c1c(C1OCCS1)nn2-c1ccccc1` (configuration not stated), the EC50 is 42.7 µM (inactive). On to `O=c1cc(-c2ccccc2)nc2nc(SCc3ccccc3)[nH]n12`, for which the EC50 was > 80 µM (inactive). The same measure for `COc1ccc2c(c1)c1ccc3c(c1n2C)C(=O)C=CC3=O`: > 80 µM (inactive).

On to `Cc1ccc(C(=O)OCc2cc(=O)n3ccsc3n2)s1`, for which the EC50 is > 80 µM (inactive).

For the compound `CC(C)C12CN3CC(C(C)C)(CN(C1)C3c1ccccc1O)C2=O` (configuration not stated), the EC50 is > 80 µM (inactive). Next, `O=C(Nc1ccncc1)c1ccccc1[N+](=O)[O-]`: 52.6 µM (inactive).

For the compound `O=C(COC(=O)c1ccccc1C(=O)c1ccc(Cl)c([N+](=O)[O-])c1)NC1CC1`, the EC50 is > 80 µM (inactive).

Consider `Cc1ccc(CCN2CC(C(=O)NCCCN3CCCCCC3)CC2=O)cc1` (configuration not stated), for which the EC50 was > 80 µM (inactive). Consider `Cc1ccc(S(=O)(=O)N[C@H](C(=O)OCC(=O)NC(=O)NCc2ccco2)C(C)C)cc1`, for which the EC50 was > 80 µM (inactive). The same measure for `Cn1c(Cl)c(/C=N/OC(=O)c2ccc(Cl)cc2)c2ccccc21`: > 80 µM (inactive); for `Cn1cnnc1SCC(=O)c1ccc2c(c1)OCO2`: > 80 µM (inactive). Take `O=C(NCCCN1CCCCCC1)C1CC(=O)N(CCc2ccccc2)C1` (configuration not stated): the EC50 was > 80 µM (inactive).

`COc1ccc(S(=O)(=O)Nc2ccc3c(c2)C(=O)N([C@H](C)CO)C[C@H](C)[C@@H](CN(C)C(=O)NC2CCCCC2)O3)cc1`: the EC50 was > 80 µM (inactive). Next, `NC(=O)CC(NC(=O)c1ccccc1)C(=O)O` (configuration not stated): > 80 µM (inactive). For the compound `CC1C/C(=C/c2ccncc2)C(=O)/C(=C/c2ccncc2)C1` (configuration not stated), the EC50 was 12.9 µM. Take `CC1CNCCN1S(=O)(=O)c1cccc2cnccc12` (configuration not stated): the EC50 was > 80 µM (inactive). Next, `COc1cc(CC(CC(=O)O)CC(C)OCc2ccccc2)cc(OC)c1` (configuration not stated): > 80 µM (inactive). The same measure for `O=C(CNC(=O)c1ccccc1)OC(C(=O)Nc1cc(C(F)(F)F)ccc1Cl)c1ccccc1` (configuration not stated): > 80 µM (inactive).

For the compound `O=S(=O)(c1cccc2cnccc12)N1CCNCC1`, the EC50 is 2.89 µM. In the case of `CCCc1nc(SCC(=O)Nc2nc3c(s2)CCCC3)c2ccccc2n1`, the EC50 is > 80 µM (inactive). Next, `COC(=O)c1[nH]c2ccccc2c1NC(=O)CCN1CCSCC1`: > 80 µM (inactive); `CC1(C)Cc2c(C#N)c(NCC3CCCO3)nc(-c3ccco3)c2CO1` (configuration not stated): 15.6 µM.

Turning to `CCCn1c(SCc2ccccc2)nc2c1c(=O)[nH]c(=O)n2C`, the EC50 was > 80 µM (inactive). Consider `CCS(=O)(=O)c1ncc(Cl)c(C(=O)Nc2ccc(S(=O)(=O)N3CCCC(C)C3)cc2)n1` (configuration not stated), for which the EC50 is > 80 µM (inactive). Next, `CC(C)(C)NC(=O)Cn1nnc(-c2ccccc2NC(=O)c2cnccn2)n1`: 10.8 µM; `COC(=O)C1=C(C)N(C)C(C)=C(C(=O)OC)C1c1cccc(Br)c1`: > 80 µM (inactive); `O=C(O)c1cc(C(=O)C2CC2)c[nH]1`: > 80 µM (inactive). Take `Cc1ccsc1C(=O)OCC(=O)Nc1sccc1C(N)=O`: the EC50 is > 80 µM (inactive). The same measure for `O=C(NC1CCCCC1)N(Cc1nc2ccccc2c(=O)[nH]1)C1CCCCC1`: > 80 µM (inactive); for `CC1CCN(C(=O)c2[nH]cnc2C(=O)NCC(=O)OC(C)(C)C)CC1`: > 80 µM (inactive).
